In PMC9557039 (iScience, 2022) one finds HPLC product analysis data, which are given here for 1 molecule.

In this test the target is UGT720-269-1 (Siraitia grosvenorii, UniProt P0DO66). The settings on record: 1 mM UDPG, 10 mM MgCl2, 40 °C; crude enzyme in screening assay.
Sequence of UGT720-269-1 (P0DO66 whole entry): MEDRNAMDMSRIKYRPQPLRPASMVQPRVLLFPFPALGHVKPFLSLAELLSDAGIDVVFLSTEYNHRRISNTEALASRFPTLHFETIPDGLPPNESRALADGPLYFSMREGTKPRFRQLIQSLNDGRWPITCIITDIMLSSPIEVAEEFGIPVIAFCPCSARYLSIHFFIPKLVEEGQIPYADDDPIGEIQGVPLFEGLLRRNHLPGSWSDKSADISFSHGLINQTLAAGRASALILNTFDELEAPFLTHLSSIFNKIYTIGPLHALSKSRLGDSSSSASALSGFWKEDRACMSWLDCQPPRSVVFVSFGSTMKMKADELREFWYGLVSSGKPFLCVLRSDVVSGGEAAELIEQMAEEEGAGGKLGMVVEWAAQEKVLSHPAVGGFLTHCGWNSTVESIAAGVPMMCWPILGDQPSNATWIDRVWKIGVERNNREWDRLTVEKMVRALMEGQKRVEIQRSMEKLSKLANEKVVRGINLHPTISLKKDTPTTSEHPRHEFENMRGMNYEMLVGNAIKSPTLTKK

Turning to `C[C@H](CC[C@@H](O)C(C)(C)O)[C@H]1CC[C@@]2(C)[C@@H]3CC=C4[C@@H](CC[C@H](O)C4(C)C)[C@]3(C)[C@H](O)C[C@]12C` [mogrol], the HPLC product analysis entry is “low catalytic property of UGT720-269-1 in the sequential glycosylation of mogrol to IIE”.
